Reference: US20230167155A1, “COMPOSITIONS AND METHODS” (KING'S COLLEGE LONDON, priority 2020, published 2023)
Entries after “also recorded” stand apart in the source; their conditions may differ. Where no end group is shown, it is not given here. The star is where a group is joined. Myristoyl = CCCCCCCCCCCCCC(=O)*

What was measured:
[1] = system: ApoE−/− mice; experiment: Regression of established atheroma, weekly IV injections (Oil Red O en face, aortic root); assay type: in vivo, mouse; set-up: regression of atherosclerosis compared to PTL060 and untailed 3-MP: dose or concentration left out as unconfirmed
Procedure: For all atherosclerosis work, male ApoE−/− mice, from the age of 6-weeks, were fed with a high fat diet (HFD) consisting 35 kcal % fat, 1.25% cholesterol, and 0.5% cholic acid (Special Diet Services, Essex UK). Aortas were transplanted 2 weeks after starting the HFD, using a sleeve anastomosis technique described previously^11. Briefly, a 5 mm of the segment of the infrarenal donor aorta, flushed with 300 μl of saline containing 50 U of heparin, was transplanted into ApoE−/− recipient abdomen aortas (N=6 per group). Blood flow was confirmed by direct inspection after removal of the clamps. Mice were fed a HFD for 6-12 weeks post-transplantation before the experiment was terminated (Suppl FIG. 1A). To assess prevention of atheroma, mice (n=6 per group) received a single injection of PTL060 or controls by tail vein, and the experiments terminated 1-3 weeks later (Suppl FIG. 1B). For regression experiments, baseline groups (n=6) were fed a HFD to the age of 22 weeks before the mice were sacrificed. Experimental or control groups (n=3-6 per group) received weekly injections by tail vein for 3-6 weeks, beginning at age of 22 weeks before the experiments were terminated when mice were 25-28 weeks old (Suppl FIG. 1C).
Atherosclerotic lesions were evaluated as previously described^11. Simply, the entire length of the aorta was perfused with PBS, dissected using a dissecting microscope, longitudinally opened and stained with Oil Red O (ORO) solution (Sigma, UK) for 30 minutes, before being photographed with a digital camera (DSC-W320, Sony, Japan). The total aortic area and lesional area were measured by using Image J. Aortas from every animal were assessed. To assess lesions in the aortic sinus, hearts were embedded in paraffin, sectioned through the aortic root and incubated with elastin/van Gieson stain using the Accustain™ Elastin Stain kit (Sigma). Sections were examined on an Olympus U-ULH optical microscope (Olympus Optical Co. Ltd, Tokyo, Japan). Atheromatous lesional and total aortic root area was determined using Image-Pro Plus TM software version 4.0 (Media Cybernetics, Silver Spring, USA). At least three random sections were examined from each mouse in all groups.

[2] = Aristolochic acid nephropathy (AAN) model of renal fibrosis; assay type: in vivo; settings: vs equimolar PTL060 or pure PAR-1 antagonist
[3] = system: C57BL/6 mice; experiment: Delayed type hypersensitivity, contact sensitivity to oxazolone (ear swelling); assay type: in vivo, mouse
Procedure: C57BL/6 mice were topically sensitised with oxazolone on the shaved abdomen on day 0. Treatment with either saline, PTL060 (10 mg/g), equimolar PTL0GC-1 or equimolar *3-MP was given on day 3 and day 5, the last immediately prior to re-challenge with oxazolone onto the right ear. The left ear was treated with vehicle alone. On day 6, the difference in swelling of the right and left ears was measured and is presented as D mean ear thickness.
This example uses a model of contact hypersensitivity. Here, mice are challenged on the abdomen with the contact sensitizer oxazolone, before a re-challenge […] on both sides of the ear with oxazolone (on the right) or vehicle alone (on the left).
Swelling of the ears, measured with a micrometer, reflects the influx of monocytes/macrophages and T cells in a typical delayed-type hypersensitivity (DTH) response.
FIG. 19: Model of DTH involving contact sensitivity to oxazolone. WT mice were administered a PAR-1 agonist or antagonist at the point of second exposure to oxazolone, before ear thickness was assessed 24 hours later, and mice sacrificed for immunohistological analysis of cross sections of the affected ears, to determine the proportional area occupied by CD68+ cells (macrophages). *p<0.05. **p<0.01. ***p<0.001

[4] = system: ApoE−/− mice; experiment: Regression by weekly adoptive transfer of CD11b+ cells / monocytes pre-incubated with compound; assay type: in vivo, mouse; settings: HFD 16 weeks, weekly IV 6 weeks; monocytes pre-treated 30 minutes, PTL060 100 microM or PTL0GC-1 25 microM
Procedure: In more detail, mechanistic insights: direct effect on monocyte/macrophage phenotype. ApoE−/− mice were fed a high fat diet for 16 weeks (baseline), prior to weekly IV treatment for 6 weeks with monocytes from BL6 mice, pre-treated for 30 minutes with either PTL060 (100 microM) or PTL0GC-1 (actually used at ¼ concentration-25 microM).
Extent of atherosclerosis was explored by en face examination of the surface area of aorta containing plaques using Oil-Red-O
Leukocytes were isolated from the blood of mice aged 8-10 weeks, using anti-CD11b MicroBeads (Miltenyi Biotec Ltd, Surrey, UK) according to manufacturers' instructions. For cell labelling, 2×10^7 CD11b+ cells were incubated with 4×10^−6 M of either PKH26 or PKH2 fluorescent dyes (Sigma, UK) for 5 minutes at 25° C. according to manufacturers' protocols, with the reaction stopped using 1% BSA in PBS followed by three washes. Each recipient mouse received 0.5×10^6 cells by IV injection; in some experiments, the cells were incubated with PTL060 (100 μM in 0.5 mls) or equimolar controls for 30 minutes at room temperature and washed three times before immediate injection. For viability assays, murine bone marrow cells were incubated for 5 days in 6 well plates, counted and re-seeded at 2×10^5 cells/ml in 24 well plates with 25 ng/ml MCSF. […]

[5] = system: C57BL/6 mice; experiment: Ischaemia reperfusion injury, acute kidney injury; assay type: in vivo, mouse; settings: 2 doses 7.5 mg/ml
Procedure: In more detail, Model 3: Ischaemia reperfusion injury: PTL0GC-1 induces quicker recovery, associated with reduced fibrosis, post acute kidney injury. Both kidneys of C57BL/6 mice were exposed under recovery anaesthesia, and both renal arteries completely occluded by clamps for 30 minutes, prior to release. 2 doses of PTL0GC-1 (7.5 mg/ml) or saline were administered to the mice immediately prior to clamping, and immediately prior to clamp release. Mice were allowed to recover and then monitored for 3 weeks, prior to euthanasia.

[Myr2]-KSSKSPSKKDDKKPGDK(CO—CH2-S—CH2-CH2-Phe-Cha-Cha-Arg-Lys-Pro-Asn-Asp-Lys-NH2)NH2 (K(Myristoyl)SSKSPSKKDDKKPGDK-NH2; not fully specified (residue 17, N-terminus); also: branched: thioether-linked Phe-Cha-Cha-Arg-Lys-Pro-Asn-Asp-Lys-NH2 on Lys17 side chain) [PTL0GC-1]
regression of atherosclerosis, being confirmed ([1]; ApoE−/− mice, vs equimolar PTL060 or pure PAR-1 antagonist): causes significant regression of atherosclerosis
regression of atherosclerosis compared to PTL060 and untailed 3-MP ([1]; HFD 16 weeks, weekly IV for 6 weeks, equimolar to PTL060): Superior regression
development of renal fibrosis, being confirmed [2]: inhibits development of renal fibrosis
DTH response, IP and SC administration ([3]; intraperitoneal or subcutaneous, day 3 and day 5): efficacy of both IP and SC administration; also recorded: can inhibit the DTH response
difference in ear swelling (D mean ear thickness) ([3]; intravenously, day 3 and day 5, equimolar to PTL060 (10 mg/g), vs PTL060 and 3-MP): biggest effect
macrophage infiltration into the skin ([3]; model of DTH): reduced macrophage infiltration into the skin
regression after transfer of pre-treated monocytes [4]: the same degree of regression associated with IV treatment of the same reagents; also recorded: superior regression
impact on the AKI ([5]; prior to clamping and prior to clamp release, renal arteries clamped 30 minutes): no impact on the AKI
kidney fibrosis, histological analysis ([5]; 3 weeks): trend towards less fibrosis
renal function ([5]; by 3 weeks): better renal function by 3 weeks
body weight during recovery phase ([5]; monitored 3 weeks): gain weight quicker
